Results: patent US11952382B1, “2-benzo-[3,4-b]quinolino-[b,g]indeno[1,2:3,4]fluoreno-[1,2-d]oxonine-24-flouro-5,11,16,21-tetraone as an antimicrobial compound” (KING FAISAL UNIVERSITY, priority 2023, dated 2024)

Key:
Assay type in all cases: cell-based
Settings in all cases: after 10, 20, 40 and 60 minutes at all dilutions 1:100, 1:200, 1:400, 1:800
[1] = test system: Staphylococcus aureus; experiment: Antimicrobial screening by agar dilution, Staphylococcus aureus
Procedure: (§1) The antibacterial properties of the synthesized compound 2-benzo-[3,4-b]quinolino-[b,g]indeno[1′,2′:3,4]fluoreno-[1,2-d]oxonine-24-flouro-5,11,16,21-tetraone were studied by the method of agar dilution. Test solutions of each compound was prepared in concentration of 1% using dimethylformamide as a solvent then they are diluted in physiological solution to obtain the final experimental dilutions 1:100, 1:200, 1:400, 1:800. The effect of these substances are compared with furacillin in a controllable study. The testing microbes used were gram positive bacteria Staphylococcus aureus, gram negative bacteria Pseudomonas aeruginosa and Escherichia coli and Candida albicans fungus. The experiments used for this survey were meat-pentonlu agar (EPA) for cultivation of bacteria and Saburo environment for the fungus. Each experiment used 1 mL of test solution on each plate […]. Two drops of emulsified with microbes feel were added. All experimental samples were taken from the agar after 10, 20, 40, 60 minutes in the environment on the basis of Patrk planted. The bacteria were cultivated at a temperature of 37° C. for 1 day and the mushroom was kept in a thermostat for 2 hours at a temperature of 28° C. Then results were checked.

[2] = test system: Escherichia coli; experiment: Antimicrobial screening by agar dilution, Escherichia coli
Procedure: as §1

[3] = test system: Pseudomonas aeruginosa; experiment: Antimicrobial screening by agar dilution, Pseudomonas aeruginosa
Procedure: as §1

[4] = test system: Candida albicans; experiment: Antimicrobial (antifungal) screening by agar dilution, Candida albicans
Procedure: as §1

Measured: inhibition activity

O=C1Oc2nc3ccc(F)cc3cc2-c2c(c3c4ccccc4c(=O)c3c3c2c(=O)c2ccccc23)C(=O)c2ccccc21 [2-benzo-[3,4-b]quinolino-[b,g]indeno[1′,2′:3,4]fluoreno-[1,2-d]oxonine-24-flouro-5,11,16,21-tetraone]
highest inhibition activity: all assays above
